Experimental data taken from US8410044B2, “Bacitracin antibiotics” (Xellia Pharmaceuticals Aps, priority 2009, dated 2013).
Where a SMILES comes first, the peptide text is derived from it. Bridges are numbered along the chain shown (N, C = ends). [ ]: non-standard residue; d: D form. The star is where a group is joined. X2 = CCC(C)C(N)C1=NC(C(=O)*)CS1; Orn = NCCC[CH](N)C(=O)O

System: Micrococcus luteus
Experiment: Potency (specific antibacterial activity): agar plate inhibition zones compared with Bacitracin Zinc standard
Type: cell-based
Conditions: calculated from potency of sample A and its 93% area-% content
Protocol: Potency is the in vitro antibacterial activity. It can be measurered and expressed as IU/mg. The antibacterial activity of samples A, B′ and C′ (see Table 1) was measured. The specific antibacterial activity (listed here as IU/mg), often termed potency, was measured by comparing the antibacterial activity of the unknown sample with known (standard) samples. Specifically, a Bacitracin Zinc standard was dissolved and diluted to 2.0, 1.0, and 0.5 IU bacitracin/ml in 0.07 M phosphate buffer pH 6.0. These three standard solutions were added to agar plates inoculated with the test organism, Micrococcus luteus. The unknown samples were dissolved, diluted and added to the same plate as the standards. After 16-24 hours at 32-37 C, the inhibition zones were measured and the unknown samples were compared to the standards.

SMILES: CCC(C)C(N)C1=NC(C(=O)NC(CC(C)C)C(=O)NC(CCC(=O)O)C(=O)NC(C(=O)NC2CCCCNC(=O)C(CC(N)=O)NC(=O)C(CC(=O)O)NC(=O)C(Cc3c[nH]cn3)NC(=O)C(Cc3ccccc3)NC(=O)C(C(C)CC)NC(=O)C(CCCN)NC2=O)C(C)CC)CS1 (stereo not shown) [Bacitracin A] (X2-LEIK[Orn]IFHDN; lactam 4-C; configuration not given here)
- specific antibacterial activity of Bacitracin A, calculated from sample A (93% Bacitracin A by HPLC at 254 nm): 77.4 IU/mg
